Assays:
KRAS G12V = molecular target: T1, KRAS G12V (Homo sapiens, UniProt P01116, G12V); experiment: KRAS G12V HiBit assay; assay type: cell-based; conditions: SW620-KRAS (G12V)-HiBit-KI cells, compound treatment for 24 hours, class symbols
T1 construct: SW620-KRAS (G12V)-HiBit-KI cell (Pharmaron); host or cells: SW620-KRAS (G12V)-HiBit-KI cells (HiBiT knock-in at the endogenous KRAS locus)
Summary of the method: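 HiBiT-tagged KRAS G12V cells treated 24 h with compound in a 3-fold, 10-point series (0.3 mM DMSO stock); lytic HiBiT reagent with LgBiT added after 15 min room-temperature equilibration. Degradation calculated against 0.1% DMSO high control.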

KRAS G12D = molecular target: T2, KRAS G12D (Homo sapiens, UniProt P01116, G12D); experiment: KRAS G12D HiBit assay; assay type: cell-based; conditions: AsPc-1-KRAS (G12D)-HiBit-KI cell, compound treatment for 24 hours; for DC50: absolute DC50
T2 construct: AsPc-1-KRAS (G12D)-HiBit-KI cell (Pharmaron); host or cells: AsPc-1-KRAS (G12D)-HiBit-KI cells (HiBiT knock-in at the endogenous KRAS locus)
Summary of the method: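 Cells were treated for 24 h with compounds in a 3-fold, 10-point dilution series from a 0.3 mM DMSO stock, then equilibrated 15 min at room temperature. KRAS G12D HiBiT levels were read by luminescence after lytic Nano-Glo HiBiT reagent with LgBiT; inhibition calculated relative to 0.1% DMSO high control.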

[1] = numeric bounds given in place of class symbols

T2 sequence (P01116 1-188 isoform P01116-2 G12D): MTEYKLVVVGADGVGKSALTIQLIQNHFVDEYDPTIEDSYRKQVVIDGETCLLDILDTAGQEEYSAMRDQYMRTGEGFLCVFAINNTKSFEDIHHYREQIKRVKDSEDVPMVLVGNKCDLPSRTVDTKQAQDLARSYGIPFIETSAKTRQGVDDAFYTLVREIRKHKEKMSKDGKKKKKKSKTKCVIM
T1 sequence (P01116 1-188 isoform P01116-2 G12V): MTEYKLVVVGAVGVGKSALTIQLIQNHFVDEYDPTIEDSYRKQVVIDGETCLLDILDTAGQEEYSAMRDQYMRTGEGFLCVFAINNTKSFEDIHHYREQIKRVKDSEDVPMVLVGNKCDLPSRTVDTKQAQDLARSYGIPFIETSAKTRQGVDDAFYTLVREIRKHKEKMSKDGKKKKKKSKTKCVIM

Row | Structure (SMILES) | DC50 (KRAS G12V) | DC50 (KRAS G12D; class symbols) | DC50 (KRAS G12D; [1]) | Dmax (KRAS G12D; class symbols)
1 | C#Cc1c(F)ccc2cccc(-c3ncc4c(N5CCC[C@@](C)(O)C5)nc(OC[C@]56CCCN5[C@@H](COC(=O)N5CCC(CN7CCC(c8ccc9c(c8)n(C)c(=O)n9C8CCC(=O)NC8=O)CC7)CC5)CC6)nc4c3F)c12 (stereo partly shown) [Compound 131] | > 100 nM | > 300 nM |  | 
2 | C#Cc1c(F)ccc2cc(O)cc(-c3ncc4c(N5CCC[C@@](C)(O)C5)nc(OC[C@@]56CCCN5[C@H](COC(=O)N5CCC(CN7CCC(c8cccc9c8n(C)c(=O)n9C8CCC(=O)NC8=O)CC7)CC5)CC6)nc4c3F)c12 (stereo partly shown) [Compound 133] | 10 to 100 nM | < 100 nM |  | 
3 | C#Cc1c(F)ccc2cc(O)cc(-c3ncc4c(N5CCC[C@@](C)(O)C5)nc(OC[C@@]56CCCN5[C@H](COC(=O)N5CCC(CN7CCC(c8ccc9c(c8)n(C8CCC(=O)NC8=O)c(=O)n9C)CC7)CC5)CC6)nc4c3F)c12 (stereo partly shown) [Compound 135] | > 100 nM | > 300 nM |  | 
4 | C#Cc1c(F)ccc2cccc(-c3ncc4c(N5CCC[C@@](C)(O)C5)nc(OC[C@@]56CCCN5[C@@H](COC(=O)N5CCC(CN7CCC(c8ccc9c(c8)n(C)c(=O)n9C8CCC(=O)NC8=O)CC7)CC5)CC6)nc4c3F)c12 (stereo partly shown) [Compound 138] | > 100 nM |  | > 100 nM | 
5 | C#Cc1cccc2cc(O)cc(-c3ncc4c(N5CCC[C@@](C)(O)C5)nc(OC[C@@]56CCCN5[C@H](COC(=O)N5CCC(CN7CCC(c8ccc9c(c8)n(C)c(=O)n9C8CCC(=O)NC8=O)CC7)CC5)CC6)nc4c3F)c12 (stereo partly shown) [Compound 144] | < 10 nM | < 100 nM |  | 
6 | CCc1c(F)ccc2cc(O)cc(-c3ccc4c(N5CCC[C@@](C)(O)C5)nc(OC[C@@]56CCCN5[C@H](COC(=O)N5CCC(CN7CCC(c8ccc9c(c8)n(C)c(=O)n9C8CCC(=O)NC8=O)CC7)CC5)CC6)nc4c3F)c12 (stereo partly shown) [Compound 146] | < 10 nM | < 100 nM |  | 
7 | C#Cc1c(F)ccc2cccc(-c3ncc4c(N5CCC[C@@](C)(O)C5)nc(OC[C@@]56CCCN5[C@H](COC(=O)N5CCC(N7CCC(c8cccc9c8n(C)c(=O)n9C8CCC(=O)NC8=O)CC7)CC5)CC6)nc4c3F)c12 (stereo partly shown) [Compound 147] | > 100 nM |  | > 100 nM | 
8 | C#Cc1c(F)ccc2cccc(-c3ncc4c(N5CCC[C@@](C)(O)C5)nc(OC[C@@]56CCCN5[C@H](COC(=O)N5CCC(C7CCN(c8ccc9c(c8)n(C)c(=O)n9C8CCC(=O)NC8=O)CC7)CC5)CC6)nc4c3F)c12 (stereo partly shown) [Compound 152] | > 100 nM |  | > 100 nM | 
9 | C#Cc1c(F)ccc2cccc(-c3ncc4c(N5CCC[C@@](C)(O)C5)nc(OC[C@@]56CCCN5[C@H](COC(=O)N5CCC(COC7CN(c8ccc9c(c8)n(C)c(=O)n9C8CCC(=O)NC8=O)C7)CC5)CC6)nc4c3F)c12 (stereo partly shown) [Compound 153] | > 100 nM |  | > 100 nM | 
10 | C[C@H]1CN(CCOCCOc2ccc3c(c2)n(C)c(=O)n3C2CCC(=O)NC2=O)CCCN1c1nccc(-c2noc([C@@]3(C)CCCc4sc(N)c(C#N)c43)n2)n1 (stereo partly drawn) [Compound 209, (4S)-2-amino-4-(3-(2-((2S)-4-(2-(2-((1-(2,6-dioxopiperidin-3-yl)-3-methyl-2-oxo-2,3-dihydro-1H-benzo[d]imidazol-5-yl)oxy)ethoxy)ethyl)-2-methyl-1,4-diazepan-1-yl)pyrimidin-4-yl)-1,2,4-oxadiazol-5-yl)-4-methyl-4,5,6,7-tetrahydrobenzo[b]thiophene-3-carbonitrile] | > 100 nM | > 300 nM |  | 15 to 50%
11 | C[C@H]1CN(CC(=O)N2CCC(CN3CCC(c4ccc5c(c4)n(C)c(=O)n5C4CCC(=O)NC4=O)CC3)CC2)CCCN1c1nccc(-c2noc([C@@]3(C)CCCc4sc(N)c(C#N)c43)n2)n1 (stereo partly drawn) [Compound 210, (4S)-2-amino-4-(3-{2-[(2S)-4-{2-[4-({4-[1-(2,6-dioxopiperidin-3-yl)-3-methyl-2-oxo-1,3-benzodiazol-5-yl]piperidin-1-yl}methyl)piperidin-1-yl]-2-oxoethyl}-2-methyl-1,4-diazepan-1-yl]pyrimidin-4-yl}-1,2,4-oxadiazol-5-yl)-4-methyl-6,7-dihydro-5H-1-benzothiophene-3-carbonitrile] | > 100 nM | > 300 nM |  | 15 to 50%
12 | C[C@H]1CN(CC(=O)N2CCC(CN3CCC(c4ccc5c(c4)n(C)c(=O)n5C4CCC(=O)NC4=O)CC3)CC2)CCCN1c1nccc(-c2noc([C@]3(C)CCCc4sc(N)c(C#N)c43)n2)n1 (stereo partly drawn) [Compound 211, (4R)-2-amino-4-(3-{2-[(2S)-4-{2-[4-({4-[1-(2,6-dioxopiperidin-3-yl)-3-methyl-2-oxo-1,3-benzodiazol-5-yl]piperidin-1-yl}methyl)piperidin-1-yl]-2-oxoethyl}-2-methyl-1,4-diazepan-1-yl]pyrimidin-4-yl}-1,2,4-oxadiazol-5-yl)-4-methyl-6,7-dihydro-5H-1-benzothiophene-3-carbonitrile] | > 100 nM | > 300 nM |  | < 15%
13 | Cn1c(=O)n(C2CCC(=O)NC2=O)c2cccc(C3CCN(CC4CCN(C(=O)CN5CCN(c6nccc(-c7noc([C@@]8(C)CCCc9sc(N)c(C#N)c98)n7)n6)CC5)CC4)CC3)c21 (stereo partly shown) [Compound 222] | > 100 nM | > 300 nM |  | 
14 | Cn1c(=O)n(C2CCC(=O)NC2=O)c2cc(C3CCN(CC4CCN(C(=O)CN5CCN(c6nccc(-c7noc([C@@]8(C)CCCc9sc(N)c(C#N)c98)n7)n6)CC5)CC4)CC3)ccc21 (stereo partly shown) [Compound 223] | > 100 nM |  | > 231 nM | 
15 | Cn1c(=O)n(C2CCC(=O)NC2=O)c2ccc(C3CCN(CC4CCN(C(=O)CN5CCN(c6nccc(-c7noc([C@@]8(C)CCCc9sc(N)c(C#N)c98)n7)n6)CC5)CC4)CC3)cc21 (stereo partly shown) [Compound 224] | > 100 nM | > 300 nM |  | 
16 | CCc1c(F)ccc2cc(O)cc(-c3ccc4c(N5CCC[C@@](C)(O)C5)nc(OCC56CCCN5C(COC(=O)N5CCC(CN7CCC(c8ccc9c(c8)n(C)c(=O)n9C8CCC(=O)NC8=O)CC7)CC5)CC6)nc4c3F)c12 (stereo partly drawn) [Compound 304, (7a-(((7-(8-ethyl-7-fluoro-3-hydroxynaphthalen-1-yl)-8-fluoro-4-((R)-3-hydroxy-3-methylpiperidin-1-yl)quinazolin-2-yl)oxy)methyl)hexahydro-1H-pyrrolizin-3-yl)methyl 4-((4-(1-(2,6-dioxopiperidin-3-yl)-3-methyl-2-oxo-2,3-dihydro-1H-benzo[d]imidazol-5-yl)piperidin-1-yl)methyl)piperidine-1-carboxylate] | > 100 nM |  | > 100 nM | 
17 | CCc1c(F)ccc2cc(O)cc(-c3ncc4c(N5CCC[C@@](C)(O)C5)nc(OC[C@]56CCCN5[C@H](COC(=O)N5CCC(Oc7cccc8c7n(C)c(=O)n8C7CCC(=O)NC7=O)CC5)CC6)nc4c3F)c12 (stereo partly drawn) [Compound 306, ((3S,7aR)-7a-(((7-(8-ethyl-7-fluoro-3-hydroxynaphthalen-1-yl)-8-fluoro-4-((R)-3-hydroxy-3-methylpiperidin-1-yl)pyrido[4,3-d]pyrimidin-2-yl)oxy)methyl)hexahydro-1H-pyrrolizin-3-yl)methyl 4-((1-(2,6-dioxopiperidin-3-yl)-3-methyl-2-oxo-2,3-dihydro-1H-benzo[d]imidazol-4-yl)oxy)piperidine-1-carboxylate] | 10 to 100 nM |  | > 100 nM | 
18 | CCc1c(F)ccc2cc(O)cc(-c3ncc4c(N5CCC[C@@](C)(O)C5)nc(OC[C@@]56CCCN5[C@@H](COC(=O)N5CCC(Oc7cccc8c7n(C)c(=O)n8C7CCC(=O)NC7=O)CC5)CC6)nc4c3F)c12 (stereo partly drawn) [Compound 313, ((3R,7aS)-7a-(((7-(8-ethyl-7-fluoro-3-hydroxynaphthalen-1-yl)-8-fluoro-4-((R)-3-hydroxy-3-methylpiperidin-1-yl)pyrido[4,3-d]pyrimidin-2-yl)oxy)methyl)hexahydro-1H-pyrrolizin-3-yl)methyl 4-((1-(2,6-dioxopiperidin-3-yl)-3-methyl-2-oxo-2,3-dihydro-1H-benzo[d]imidazol-4-yl)oxy)piperidine-1-carboxylate] | > 100 nM |  | > 100 nM | 
19 | CCc1c(F)ccc2cc(O)cc(-c3ccc4c(N5CCC[C@@](C)(O)C5)nc(OC[C@]56CCCN5[C@H](COC(=O)N5CCC(CN7CCC(c8ccc9c(c8)n(C)c(=O)n9C8CCC(=O)NC8=O)CC7)CC5)CC6)nc4c3F)c12 (stereo partly drawn) [Compound 318, ((3S,7aR)-7a-(((7-(8-ethyl-7-fluoro-3-hydroxynaphthalen-1-yl)-8-fluoro-4-((R)-3-hydroxy-3-methylpiperidin-1-yl)quinazolin-2-yl)oxy)methyl)hexahydro-1H-pyrrolizin-3-yl)methyl 4-((4-(1-(2,6-dioxopiperidin-3-yl)-3-methyl-2-oxo-2,3-dihydro-1H-benzo[d]imidazol-5-yl)piperidin-1-yl)methyl)piperidine-1-carboxylate] | > 100 nM |  | > 100 nM | 
20 | CCc1c(F)ccc2cc(O)cc(-c3ccc4c(N5CCC[C@@](C)(O)C5)nc(OC[C@@]56CCCN5[C@@H](COC(=O)N5CCC(CN7CCC(c8ccc9c(c8)n(C)c(=O)n9C8CCC(=O)NC8=O)CC7)CC5)CC6)nc4c3F)c12 (stereo partly drawn) [Compound 319, ((3R,7aS)-7a-(((7-(8-ethyl-7-fluoro-3-hydroxynaphthalen-1-yl)-8-fluoro-4-((R)-3-hydroxy-3-methylpiperidin-1-yl)quinazolin-2-yl)oxy)methyl)hexahydro-1H-pyrrolizin-3-yl)methyl 4-((4-(1-(2,6-dioxopiperidin-3-yl)-3-methyl-2-oxo-2,3-dihydro-1H-benzo[d]imidazol-5-yl)piperidin-1-yl)methyl)piperidine-1-carboxylate] | > 100 nM |  | > 100 nM | 
